Source: PubChem BioAssay AID1963845 (Molecular Pharmacology Branch, DTP, NCI, 2024)

System: 429239-143-T-J1-PDC complex spheroid viability
Assay: Anticancer human tumor 429239-143-T-J1-PDC patient-derived small cell lung carcinoma cell line growth inhibition [POLQ]
Conditions: for IC50: curve of first compound; for viability, T/C: stronger effect = lower value
How it was run: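 Growth inhibition in 3D: complex spheroids (tumor PDC, HUVEC, MSC) treated with POLQ inhibitor combinations; where Cmax unknown, highest tested concentration 10 microM, except SN-38 at 1 microM.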

[1] = second compound 0.0316 µM, first compound 0.0316 µM
[2] = second compound 0.0316 µM, first compound 0.1 µM
[3] = second compound 0.0316 µM, first compound 0.316 µM
[4] = second compound 0.0316 µM, first compound 1 µM
[5] = second compound 0.0316 µM, first compound 3.16 µM
[6] = second compound 0.0316 µM, first compound 10 µM
[7] = second compound 0.1 µM, first compound 0.0316 µM
[8] = second compound 0.1 µM, first compound 0.1 µM
[9] = second compound 0.1 µM, first compound 0.316 µM
[10] = second compound 0.1 µM, first compound 1 µM
[11] = second compound 0.1 µM, first compound 3.16 µM
[12] = second compound 0.1 µM, first compound 10 µM
[13] = second compound 0.316 µM, first compound 0.0316 µM
[14] = second compound 0.316 µM, first compound 0.1 µM
[15] = second compound 0.316 µM, first compound 0.316 µM
[16] = second compound 0.316 µM, first compound 1 µM
[17] = second compound 0.316 µM, first compound 3.16 µM
[18] = second compound 0.316 µM, first compound 10 µM
[19] = second compound 1 µM, first compound 0.0316 µM
[20] = second compound 1 µM, first compound 0.1 µM
[21] = second compound 1 µM, first compound 0.316 µM
[22] = second compound 1 µM, first compound 1 µM
[23] = second compound 1 µM, first compound 3.16 µM
[24] = second compound 1 µM, first compound 10 µM
[25] = second compound 3.16 µM, first compound 0.0316 µM
[26] = second compound 3.16 µM, first compound 0.1 µM
[27] = second compound 3.16 µM, first compound 0.316 µM
[28] = second compound 3.16 µM, first compound 1 µM
[29] = second compound 3.16 µM, first compound 3.16 µM
[30] = second compound 3.16 µM, first compound 10 µM
[31] = second compound 10 µM, first compound 0.0316 µM
[32] = second compound 10 µM, first compound 0.1 µM
[33] = second compound 10 µM, first compound 0.316 µM
[34] = second compound 10 µM, first compound 1 µM
[35] = second compound 10 µM, first compound 3.16 µM
[36] = second compound 10 µM, first compound 10 µM
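Note: luminescence signal used as surrogate measure of viable cells; spheroids exposed to compounds for seven days before readout.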
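Throughout, for viability, T/C: 100% = DMSO vehicle control viability as luminescence relative to vehicle.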

SMILES: O=C(Nc1ccc(O)c(NS(=O)(=O)c2ccc(F)cc2)c1)c1ccc(-c2ccccc2)cc1 + COC1C(OC(N)=O)C(O)C(Oc2ccc3c(O)c(NC(=O)c4ccc(O)c(CC=C(C)C)c4)c(=O)oc3c2C)OC1(C)C
- IC50 (second compound 0.0316 µM): > 10000 nM
- IC50 (second compound 0.1 µM): > 10000 nM
- IC50 (second compound 0.316 µM): > 10000 nM
- IC50 (second compound 1 µM): > 10000 nM
- IC50 (second compound 3.16 µM): > 10000 nM
- IC50 (second compound 10 µM): > 10000 nM
- viability, T/C [1]: 110%
- viability, T/C [2]: 97.1%
- viability, T/C [3]: 108%
- viability, T/C [4]: 105%
- viability, T/C [5]: 99%
- viability, T/C [6]: 66.7%
- viability, T/C [7]: 90.2%
- viability, T/C [8]: 92.9%
- viability, T/C [9]: 99.6%
- viability, T/C [10]: 121%
- viability, T/C [11]: 113%
- viability, T/C [12]: 61.3%
- viability, T/C [13]: 101%
- viability, T/C [14]: 83.7%
- viability, T/C [15]: 95.2%
- viability, T/C [16]: 105%
- viability, T/C [17]: 106%
- viability, T/C [18]: 64.4%
- viability, T/C [19]: 104%
- viability, T/C [20]: 92.8%
- viability, T/C [21]: 93%
- viability, T/C [22]: 90.8%
- viability, T/C [23]: 107%
- viability, T/C [24]: 59.4%
- viability, T/C [25]: 98.9%
- viability, T/C [26]: 90%
- viability, T/C [27]: 100%
- viability, T/C [28]: 98.7%
- viability, T/C [29]: 93.3%
- viability, T/C [30]: 76.9%
- viability, T/C [31]: 99.1%
- viability, T/C [32]: 85.9%
- viability, T/C [33]: 99%
- viability, T/C [34]: 102%
- viability, T/C [35]: 113%
- viability, T/C [36]: 68.6%

SMILES: CC(=O)O[C@H]1C(=O)[C@@]2(C)[C@H]([C@H](OC(=O)c3ccccc3)[C@]3(O)C[C@H](OC(=O)[C@H](O)[C@@H](NC(=O)c4ccccc4)c4ccccc4)C(C)=C1C3(C)C)[C@]1(OC(C)=O)CO[C@@H]1C[C@@H]2O + Cc1cccc(N(C)C(=O)C2C(O)CCN2c2nc(C)cc(C(F)(F)F)c2C#N)c1
- IC50 (second compound 0.0316 µM): 13.4 nM
- IC50 (second compound 0.1 µM): 12.9 nM
- IC50 (second compound 0.316 µM): 11.6 nM
- IC50 (second compound 1 µM): 14.2 nM
- IC50 (second compound 3.16 µM): 13.2 nM
- IC50 (second compound 10 µM): 12.5 nM
- viability, T/C (second compound 0.0316 µM, first compound 0.00949 µM): 63.2%
- viability, T/C (second compound 0.0316 µM, first compound 0.03 µM): 14.9%
- viability, T/C (second compound 0.0316 µM, first compound 0.0949 µM): 11.6%
- viability, T/C (second compound 0.0316 µM, first compound 0.3 µM): 19.4%
- viability, T/C (second compound 0.0316 µM, first compound 0.949 µM): 24.7%
- viability, T/C (second compound 0.0316 µM, first compound 3 µM): 27.8%
- viability, T/C (second compound 0.1 µM, first compound 0.00949 µM): 60.9%
- viability, T/C (second compound 0.1 µM, first compound 0.03 µM): 15.6%
- viability, T/C (second compound 0.1 µM, first compound 0.0949 µM): 18.6%
- viability, T/C (second compound 0.1 µM, first compound 0.3 µM): 18.5%
- viability, T/C (second compound 0.1 µM, first compound 0.949 µM): 23%
- viability, T/C (second compound 0.1 µM, first compound 3 µM): 24.6%
- viability, T/C (second compound 0.316 µM, first compound 0.00949 µM): 56.6%
- viability, T/C (second compound 0.316 µM, first compound 0.03 µM): 17.8%
- viability, T/C (second compound 0.316 µM, first compound 0.0949 µM): 12.7%
- viability, T/C (second compound 0.316 µM, first compound 0.3 µM): 16.9%
- viability, T/C (second compound 0.316 µM, first compound 0.949 µM): 18.8%
- viability, T/C (second compound 0.316 µM, first compound 3 µM): 23.9%
- viability, T/C (second compound 1 µM, first compound 0.00949 µM): 66.5%
- viability, T/C (second compound 1 µM, first compound 0.03 µM): 14.6%
- viability, T/C (second compound 1 µM, first compound 0.0949 µM): 17.8%
- viability, T/C (second compound 1 µM, first compound 0.3 µM): 17.1%
- viability, T/C (second compound 1 µM, first compound 0.949 µM): 22.7%
- viability, T/C (second compound 1 µM, first compound 3 µM): 24.7%
- viability, T/C (second compound 3.16 µM, first compound 0.00949 µM): 62.5%
- viability, T/C (second compound 3.16 µM, first compound 0.03 µM): 17%
- viability, T/C (second compound 3.16 µM, first compound 0.0949 µM): 14.6%
- viability, T/C (second compound 3.16 µM, first compound 0.3 µM): 17.2%
- viability, T/C (second compound 3.16 µM, first compound 0.949 µM): 21.7%
- viability, T/C (second compound 3.16 µM, first compound 3 µM): 25.1%
- viability, T/C (second compound 10 µM, first compound 0.00949 µM): 61.2%
- viability, T/C (second compound 10 µM, first compound 0.03 µM): 12.5%
- viability, T/C (second compound 10 µM, first compound 0.0949 µM): 17.8%
- viability, T/C (second compound 10 µM, first compound 0.3 µM): 14.6%
- viability, T/C (second compound 10 µM, first compound 0.949 µM): 18%
- viability, T/C (second compound 10 µM, first compound 3 µM): 16%

SMILES: COc1cc(C2c3cc4c(cc3C(OC3OC5COC(C)OC5C(O)C3O)C3COC(=O)C23)OCO4)cc(OC)c1O (stereo not drawn) + Cc1cccc(N(C)C(=O)C2C(O)CCN2c2nc(C)cc(C(F)(F)F)c2C#N)c1
- IC50 (second compound 0.0316 µM): 377 nM
- IC50 (second compound 0.1 µM): 366 nM
- IC50 (second compound 0.316 µM): 501 nM
- IC50 (second compound 1 µM): 337 nM
- IC50 (second compound 3.16 µM): 226 nM
- IC50 (second compound 10 µM): 246 nM
- viability, T/C [1]: 107%
- viability, T/C [2]: 92.9%
- viability, T/C [3]: 56.7%
- viability, T/C [4]: 19.1%
- viability, T/C [5]: 20.2%
- viability, T/C [6]: 14.3%
- viability, T/C [7]: 92.4%
- viability, T/C [8]: 88%
- viability, T/C [9]: 54.4%
- viability, T/C [10]: 19.6%
- viability, T/C [11]: 16.6%
- viability, T/C [12]: 14.1%
- viability, T/C [13]: 92.3%
- viability, T/C [14]: 90.1%
- viability, T/C [15]: 69.2%
- viability, T/C [16]: 21.1%
- viability, T/C [17]: 17.4%
- viability, T/C [18]: 15.9%
- viability, T/C [19]: 85.5%
- viability, T/C [20]: 83.3%
- viability, T/C [21]: 52%
- viability, T/C [22]: 17.4%
- viability, T/C [23]: 16.1%
- viability, T/C [24]: 15.9%
- viability, T/C [25]: 82.8%
- viability, T/C [26]: 77.4%
- viability, T/C [27]: 38.8%
- viability, T/C [28]: 15.2%
- viability, T/C [29]: 19.5%
- viability, T/C [30]: 16.6%
- viability, T/C [31]: 94.6%
- viability, T/C [32]: 74.8%
- viability, T/C [33]: 44.6%
- viability, T/C [34]: 20.7%
- viability, T/C [35]: 21.2%
- viability, T/C [36]: 18.2%

SMILES: COc1cccc2c1C(=O)c1c(O)c3c(c(O)c1C2=O)CC(O)(C(=O)CO)CC3OC1CC(N)C(O)C(C)O1 (stereo not drawn) + Cc1cccc(N(C)C(=O)C2C(O)CCN2c2nc(C)cc(C(F)(F)F)c2C#N)c1
- IC50 (second compound 0.0316 µM): 56.5 nM
- IC50 (second compound 0.1 µM): 57.9 nM
- IC50 (second compound 0.316 µM): 47.8 nM
- IC50 (second compound 1 µM): 43.8 nM
- IC50 (second compound 3.16 µM): 46.9 nM
- IC50 (second compound 10 µM): 45.2 nM
- viability, T/C [1]: 83.3%
- viability, T/C [2]: 15.2%
- viability, T/C [3]: 12.4%
- viability, T/C [4]: 0.22%
- viability, T/C [5]: 0.12%
- viability, T/C [6]: 0.13%
- viability, T/C [7]: 84.9%
- viability, T/C [8]: 15.6%
- viability, T/C [9]: 14.7%
- viability, T/C [10]: 0.15%
- viability, T/C [11]: 0.11%
- viability, T/C [12]: 0.09%
- viability, T/C [13]: 69.1%
- viability, T/C [14]: 14.3%
- viability, T/C [15]: 11.2%
- viability, T/C [16]: 0.17%
- viability, T/C [17]: 0.16%
- viability, T/C [18]: 0.11%
- viability, T/C [19]: 62.7%
- viability, T/C [20]: 16%
- viability, T/C [21]: 14.7%
- viability, T/C [22]: 0.15%
- viability, T/C [23]: 0.13%
- viability, T/C [24]: 0.09%
- viability, T/C [25]: 68.1%
- viability, T/C [26]: 13.6%
- viability, T/C [27]: 12.1%
- viability, T/C [28]: 0.14%
- viability, T/C [29]: 0.25%
- viability, T/C [30]: 0.15%
- viability, T/C [31]: 63.8%
- viability, T/C [32]: 17.8%
- viability, T/C [33]: 14.5%
- viability, T/C [34]: 0.17%
- viability, T/C [35]: 0.25%
- viability, T/C [36]: 0.2%
